The target of one assay is T1, human cloned H1 receptor (Homo sapiens, UniProt P35367).
T1 construct: expressed in transfected cells; host or cells: CHO-K1
The experiment in a line: CHO-K1 H1R binding assay. Conditions: 3H-pyrilamine 2 nM, CHO-K1 membranes, 3 hours at 37° C.; read-out: CHOH1 K1.

The test system of assay [1] is histamine-induced bronchoconstriction. In words: Antihistaminergic activity in vivo (histamine-induced bronchoconstriction). The settings on record: Cavia porcellus, guinea pig, oral, 2 mg/kg. The protocol:
Male, Hartley guinea pigs are obtained from Charles River Labs at a body weight of 350 -400 grams. Inhibition of histamine activity is measured by the method of Konzett and Rössler (Naonyn-Schmiedebergs Arch. Exp. Path. Pharmakol. 195, 71-74 (1940). Anaethetized guinea pigs are subjected to artificial ventilation. The endotracheal pressure is recorded. Bronchoconstriction is induced by successive intravenous injections of histamine. The test compounds are administered orally in a 1% methocellulose suspension at set timepoints prior to the administration of histamine.
The results (Table 2) show the percent inhibition of histamine-induced bronchoconstriction by selected compounds at multiple time points post oral dosing. 50% inhibition or greater is considered significant.

Another assay has as its target T2, 15-lipoxygenase (Oryctolagus cuniculus, UniProt P12530).
T2 construct: from tissue; host or cells: rabbit peritoneal polymorphonuclear leukocytes
T2 sequence (P12530 1-663): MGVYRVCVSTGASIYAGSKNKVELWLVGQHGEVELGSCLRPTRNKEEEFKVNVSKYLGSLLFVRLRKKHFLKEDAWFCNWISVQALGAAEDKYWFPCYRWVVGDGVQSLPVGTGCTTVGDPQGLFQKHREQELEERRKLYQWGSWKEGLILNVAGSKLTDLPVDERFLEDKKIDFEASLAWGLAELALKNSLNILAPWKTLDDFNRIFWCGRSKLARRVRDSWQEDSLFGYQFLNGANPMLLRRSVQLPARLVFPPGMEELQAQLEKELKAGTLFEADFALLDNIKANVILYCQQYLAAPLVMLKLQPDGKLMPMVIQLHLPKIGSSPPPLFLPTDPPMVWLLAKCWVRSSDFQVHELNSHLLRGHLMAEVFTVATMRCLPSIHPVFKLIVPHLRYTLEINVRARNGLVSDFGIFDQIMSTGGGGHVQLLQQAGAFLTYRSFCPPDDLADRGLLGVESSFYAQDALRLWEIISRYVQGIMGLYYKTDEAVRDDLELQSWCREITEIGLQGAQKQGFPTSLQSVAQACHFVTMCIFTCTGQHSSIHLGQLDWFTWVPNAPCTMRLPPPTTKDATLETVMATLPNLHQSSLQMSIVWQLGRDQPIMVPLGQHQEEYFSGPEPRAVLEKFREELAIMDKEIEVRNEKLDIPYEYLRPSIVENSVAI
The experiment in a line: Inhibition of 15-lipoxygenase (15-HETE production). The settings on record: 15-lipoxygenase from rabbit peritoneal polymorphonuclear leukocytes, 5 min at 37° C. It is filed as biochemical. From the text:
This assay examines the ability of a compound to inhibit production of 15-hydroxy-5, 8, 11, 13-eicosatetraenoic acid (15-HETE) via the action of 15-lipoxygenase on arachidonic acid. 15-lipoxygenase was purified from rabbit peritoneal polymorphonuclear leukocytes. The enzyme is responsible for the conversion of arachidonic acid (via oxygenation at carbon 15 of arachidonic acid) to 15-hydroperoxy-5, 8, 11, 13-eicosatetraenoic acid (15-HPETE), which then reduced to 15-hydroxy-5, 8, 11, 13-eicosatetraenoic acid (15-HETE).
The procedure for the assay is as follows. Arachidonic acid is co-incubated with […] for 5 min at 37° C. in the presence or absence of different concentrations of test compound (10^−8 to 10^−5 M). Production of 15-HETE in each sample is then measured by radioimmunoassay. The 15-HETE levels produced in the vehicle control sample are then compared to those in which the test compound has been added.

For the next assay, the system named is 5-lipoxygenase. In words: 5-Lipoxygenase inhibitory activity in vivo. The settings on record: guinea pig, oral, 2 mg/kg. As for the experimental part: Male, Hartley guinea pigs are obtained from Charles River Labs at a body weight of 350-400 grams. Compounds are prepared at a volume of [1-2 mg/ml] in 1% methocellulose for oral dosing. Animals are separated into groups of five (5). Each assay includes a control group dosed with vehicle. Each group of animals is dosed with either vehicle or compound by oral gavage. Animals are allowed to rest for one, three, or six hours after dosing. Control animals are allowed to rest for three hours. At the appropriate times, the animals are anesthetized with Urethane at 1.5 g/kg, ip. Blood is drawn into a heparinized syringe via cardiac puncture. Blood (0.5 ml) is aliquoted into separately-labeled 1.5 ml eppendorf tubes. Each sample is loaded with 5 μl of [15 mM] Arachidonic Acid, and placed in a 37° C. water bath for five minutes. After five minutes, the blood is stimulated with 5 μl of [5 mM] A23187 (Calcium Ionophore) and retained in the water bath for an additional 30 minutes. After the thirty minutes, the blood samples are removed from the water bath and centrifuged at 14,000 rpm for 2 minutes. Plasma is diluted to EIA buffer and an EIA is performed following manufacturer instructions (Cayman Chemical Co., Ann Arbor, Mich., USA). The results (Table 3) show the percent inhibition of 5-lipoxygenase by selected compounds at multiple time points post oral dosing. 50% inhibition or greater is considered significant.

Assay [2] addresses T3, human 5-lipoxygenase enzyme (Homo sapiens, UniProt P09917).
T3 construct: endogenous in cells; host or cells: human whole blood (leukocytes) stimulated with A23187
T3 sequence (P09917 1-674): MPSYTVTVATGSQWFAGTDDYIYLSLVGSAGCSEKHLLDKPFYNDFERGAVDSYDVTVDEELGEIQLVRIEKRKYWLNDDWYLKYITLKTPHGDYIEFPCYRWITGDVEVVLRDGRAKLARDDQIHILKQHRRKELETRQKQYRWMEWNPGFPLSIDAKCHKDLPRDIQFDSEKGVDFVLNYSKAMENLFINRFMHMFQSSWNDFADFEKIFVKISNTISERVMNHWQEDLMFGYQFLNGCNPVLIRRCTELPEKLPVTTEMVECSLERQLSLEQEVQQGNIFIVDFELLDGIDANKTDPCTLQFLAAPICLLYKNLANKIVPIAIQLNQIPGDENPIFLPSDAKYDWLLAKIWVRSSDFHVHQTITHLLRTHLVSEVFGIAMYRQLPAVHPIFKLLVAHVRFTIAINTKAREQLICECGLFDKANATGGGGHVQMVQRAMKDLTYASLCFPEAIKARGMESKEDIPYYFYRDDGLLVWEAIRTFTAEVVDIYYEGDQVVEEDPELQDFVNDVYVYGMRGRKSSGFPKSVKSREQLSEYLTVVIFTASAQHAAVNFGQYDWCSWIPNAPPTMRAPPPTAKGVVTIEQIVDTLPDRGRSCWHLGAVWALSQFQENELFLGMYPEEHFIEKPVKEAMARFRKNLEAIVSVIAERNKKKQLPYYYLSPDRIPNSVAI
The experiment in a line: Inhibition of LTB4 production in human whole blood. Conditions: human whole blood, calcium ionophore A23187 50 μM, LTB4 by EIA; read-out: HWB IC50. It is filed as cell-based. The protocol:
This assay examines the ability of a compound to inhibit leukotriene B4 production from human blood stimulated with calcium ionophore. As this production of leukotriene B4 is mediated via the activation of the 5-lipoxygenase enzyme, this assay is predictive of a compound's ability to inhibit the human 5-lipoxygenase enzyme.
The procedure for the assay is as follows. Blood is drawn from normal human volunteers into tubes containing heparin. 1 ml of the heparinized blood is pipetted into a 1.5 ml polypropylene tube. To this sample is added either different concentrations of the test compound (5 μl) dissolved in DMSO or 5 μl of DMSO as a vehicle control. These samples are incubated in a water bath, at 37° C. for 15 min. 5 μl of the calcium ionophore A23187 (at a final concentration of 50 μM) is then added to each sample, which is vortexed and placed back in the water bath for 30 min. The samples are then centrifuged at 2500 rpm for 10 min. at 4° C. 50 μl of the supernatant is transferred into pre-cooled Eppendorf tubes containing 950 μl of enzyme immunoassay (EIA) buffer. A commercially available EIA kit (Cayman Chemical Co., Ann Arbor, Mich., USA) is used to subsequently measure the LTB4 production in the samples. The LTB4 levels produced in the vehicle control sample is then compared to those in which the test compound has been added. From this a percent inhibition of LTB4 production by each concentration of test compound is calculated and the IC50 for inhibition of LTB4 production for each test compound is determined.

T1 sequence (P35367 whole entry): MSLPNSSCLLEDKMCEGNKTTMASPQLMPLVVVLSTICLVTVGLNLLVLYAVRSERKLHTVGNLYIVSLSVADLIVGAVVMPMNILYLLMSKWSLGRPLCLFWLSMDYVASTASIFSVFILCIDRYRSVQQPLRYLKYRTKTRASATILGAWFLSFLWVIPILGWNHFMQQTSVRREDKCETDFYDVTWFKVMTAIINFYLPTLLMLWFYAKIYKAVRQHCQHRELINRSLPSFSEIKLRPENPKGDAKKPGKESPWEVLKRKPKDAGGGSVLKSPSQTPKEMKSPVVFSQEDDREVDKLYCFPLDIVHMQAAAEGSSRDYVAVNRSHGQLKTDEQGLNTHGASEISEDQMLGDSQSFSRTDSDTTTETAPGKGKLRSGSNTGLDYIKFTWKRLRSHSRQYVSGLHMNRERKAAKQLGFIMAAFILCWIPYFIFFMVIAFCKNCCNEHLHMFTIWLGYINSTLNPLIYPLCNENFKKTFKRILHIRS
Procedure for human cloned H1 receptor: CHO-K1 cells expressing the human cloned H1 receptor are grown to confluence in tissue culture dishes. Cells are harvested using D-PBS buffer (JRH Biosciences), kept at 4° C., centrifuging to pellet cells (4° C., 500 g, 10 min). The final cell pellet is homogenized and resuspended using Tris/sucrose buffer (20 mM Tris, 250 mM sucrose, pH 7.4 at 4° C.). Aliquots of the membrane preparation are stored at −70° C.
On the day of assay, the membrane preparation is thawed and centrifuged (TLA100.3 rotor, 4° C., 15 min, 23,000 rpm). The pellet is resuspended in Tris/sucrose buffer initially and then diluted further as necessary using assay buffer A (50 mM Na/KPO4, 2 mM MgCl2, 0.5% (w/v) BSA, pH 7.5).
For the binding assay, the membrane preparation, test compound and ^3H-pyrilamine (2 nM final) in buffer A with 1% (v/v) DMSO final are incubated in a 96-well polypropylene plate for 3 hours at 37° C. Non-specific binding is determined in the presence of 10 μM pyrilamine. A 96-well harvester (Packard) is used to harvest the 96-well plate onto a GF/B filter plate pre-treated with 0.1% (v/v) PEI. The plate is counted in a Packard Topcounter after adding Microscint 20 (Packard) scintillation fluid. The Ki for each compound at the histamine H1 receptor is then calculated from these counts.

For orientation: inhibition in vivo means the share of the control response that was lost under treatment. Read a low inhibition in vivo as little suppression. What is called IC50 is the concentration that inhibits the measured activity by half. In the case of `NC(=O)c1cc(C#CCCN(O)C(N)=O)ccc1OCCN1CCN([C@H](c2ccccc2)c2ccc(Cl)cc2)CC1` [Compound 35, 2-(2-{4-[(1R) (4-chlorophenyl)phenyl-methyl]piperazinyl}ethoxy)-5-[4-(amino-hydroxycarbonylamino)but-1-ynyl]benzamide], on human cloned H1 receptor, the Ki was determined as 135 nM. For the same compound, the inhibition in vivo at 2 mg/kg turned out to be 72% in assay [1] (3 hrs) and 88% in assay [1] (6 hrs). Besides, the IC50 at 15-lipoxygenase was 46 nM; in assay [2] it was 85 nM. For the same compound, the “% inhibition of 5-lipoxygenase” value in the assay with 5-lipoxygenase (1 hour) was found to be 87%; in the assay with 5-lipoxygenase (3 hours), 97%.

The record behind these values is patent US6451801B1, “Compounds and methods for treatment of asthma, allergy and inflammatory disorders” (UCB, S.A., priority 1999, dated 2002).
